From US20240041042A1, “1-(PYRIDYL)-5-AZINYLPYRAZOLE DERIVATIVES, AND THEIR USE FOR CONTROL OF UNDESIRED PLANT GROWTH” (Bayer Aktiengesellschaft, priority 2020, published 2024)
Like-named read-outs stand apart in the source and are kept apart here.

Experiments:
Assay type in all cases: in vivo
[1] = system: Lolium rigidum (LOLRI); assay: Pre-emergence herbicidal action against LOLRI
Procedure, shortened: (§1)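 Dosages of 320 g/ha or less; pre-emergence; WP or EC in aqueous spray, 0.5% additive, 600 l/ha; greenhouse; visual % effect after ~3 wk relative to control pots.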

[2] = system: Avena fatua (AVEFA); assay: Pre-emergence herbicidal action against AVEFA; details: visual scoring after about 3 weeks vs untreated controls
Procedure, shortened: as §1

[3] = system: Avena fatua (AVEFA); assay: Post-emergence herbicidal action against AVEFA; details: 80 g/ha, visual rating about 3 weeks after treatment
Procedure, shortened: (§2)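 Rates were 320 g/ha or below, applied as aqueous WP/EC spray with 0.5% additive (600 l/ha) onto one-leaf-stage plants. About 3 weeks later in the greenhouse, damage was scored visually against untreated plants on a 0–100% scale, where 100% means plants died.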

[4] = system: Viola tricolor (VIOTR); assay: Post-emergence herbicidal action against VIOTR; details: 80 g/ha
Procedure, shortened: as §2

[5] = system: Zea mays (ZEAMX); details: pre-emergence, 80 g/ha, crop plant compatibility, in comparison to untreated controls
Procedure, shortened: (§3)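 Crop injury rated visually in percent against untreated plants roughly 3 weeks after treatment (0% no effect, 100% plants dead). Compounds, as WP or EC with 0.5% additive in 600 l/ha water, were applied to the covering soil right after sowing; greenhouse growth. Suffixes a, b, c denote different dosages.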

[6] = system: Abutilon theophrasti (ABUTH); assay: Post-emergence herbicidal action against ABUTH; details: 80 g/ha, visual rating about 3 weeks after treatment vs untreated controls (100% = plants have died, 0% = like control plants)
Procedure, shortened: as §2

[7] = system: Digitaria sanguinalis (DIGSA); assay: Pre-emergence herbicidal action against DIGSA
Procedure, shortened: as §1

[8] = system: Pharbitis purpurea (PHBPU); assay: Post-emergence herbicidal action against PHBPU; details: dosage 80 g/ha
Procedure, shortened: as §2

[9] = system: Polygonum convolvulus (POLCO); assay: Pre-emergence herbicidal action against POLCO
Procedure, shortened: as §1

[10] = system: Matricaria inodora (MATIN); assay: Pre-emergence herbicidal action against MATIN; details: dosage 320 g/ha
Procedure, shortened: as §1

[11] = system: Oryza sativa (ORYSA); details: crop plant compatibility
Procedure, shortened: (§4)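 Test crops were treated 2 to 3 weeks after sowing, once they reached one leaf, by spraying compound in water with 0.5% additive at 600 l/ha. Visual scoring compared them with untreated controls roughly 3 weeks on, and appendices a, b and c denote different doses.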

[12] = system: Zea mays (ZEAMX); details: for Post-emergence action against ZEAMX in % (crop plant compatibility): 20 g/ha, effect in comparison to untreated controls
Procedure, shortened: as §4

[13] = system: Alopecurus myosuroides (ALOMY); assay: Pre-emergence herbicidal action against ALOMY; details: scored visually after about 3 weeks, 100% = plants have died
Procedure, shortened: as §1

[14] = system: Lolium rigidum (LOLRI); assay: Post-emergence herbicidal action against LOLRI; details: dosage 80 g/ha
Procedure, shortened: as §2

[15] = system: Setaria viridis (SETVI); assay: Pre-emergence herbicidal action against SETVI
Procedure, shortened: as §1

[16] = system: Pharbitis purpurea (PHBPU); assay: Pre-emergence herbicidal action against PHBPU; details: dosage 320 g/ha
Procedure, shortened: as §1

[17] = system: Viola tricolor (VIOTR); assay: Pre-emergence herbicidal action against VIOTR
Procedure, shortened: as §1

[18] = system: Verconica persica (VERPE); assay: Pre-emergence herbicidal action against VERPE; details: dosage 320 g/ha
Procedure, shortened: as §1

[19] = system: Echinochloa crus-galli (ECHCG); assay: Pre-emergence herbicidal action against ECHCG; details: dosage 320 g/ha
Procedure, shortened: as §1

[20] = system: Polygonum convolvulus (POLCO); assay: Post-emergence herbicidal action against POLCO; details: dosage 80 g/ha
Procedure, shortened: as §2

[21] = system: Setaria viridis (SETVI); assay: Post-emergence herbicidal action against SETVI; details: dosage 80 g/ha
Procedure, shortened: as §2

[22] = system: Amaranthus retroflexus (AMARE); assay: Post-emergence herbicidal action against AMARE; details: 80 g/ha, visual rating about 3 weeks after treatment vs untreated controls (100% = plants have died, 0% = like control plants)
Procedure, shortened: as §2

[23] = system: Alopecurus myosuroides (ALOMY); assay: Post-emergence herbicidal action against ALOMY; details: 80 g/ha, visual rating about 3 weeks after treatment vs untreated controls (100% = plants have died, 0% = like control plants)
Procedure, shortened: as §2

[24] = system: Digitaria sanguinalis (DIGSA); assay: Post-emergence herbicidal action against DIGSA; details: 80 g/ha, visual rating about 3 weeks after treatment
Procedure, shortened: as §2

[25] = system: Amaranthus retroflexus (AMARE); assay: Pre-emergence herbicidal action against AMARE; details: visual scoring after about 3 weeks vs untreated controls
Procedure, shortened: as §1

[26] = system: Echinochloa crus-galli (ECHCG); assay: Post-emergence herbicidal action against ECHCG; details: dosage 80 g/ha
Procedure, shortened: as §2

[27] = system: Matricaria inodora (MATIN); assay: Post-emergence herbicidal action against MATIN; details: dosage 80 g/ha
Procedure, shortened: as §2

[28] = system: Oryza sativa (ORYSA); details: pre-emergence, 80 g/ha, crop plant compatibility, in comparison to untreated controls
Procedure, shortened: as §3

[29] = 80 g/ha, visual scoring after about 3 weeks vs untreated controls
[30] = 20 g/ha, effect vs untreated controls
[31] = 80 g/ha, effect in comparison to untreated controls

Q: Which results are given for `COC(=O)[C@@H](C)Oc1nn(-c2ccccn2)c(-c2ccnc(F)c2)c1Cl` [Example I-19]?
A: Pre-emergence action against LOLRI in % ([1]; dosage 320 g/ha): 100%; Pre-emergence action against AVEFA in % ([2]; 80 g/ha): 80%; Pre-emergence action against AVEFA in % ([2]; 320 g/ha): 100%; Post-emergence action against AVEFA in % [3]: 90%; Post-emergence action against VIOTR in % [4]: 90%; Pre-emergence action against ZEAMX in % [5]: 0%; Post-emergence action against ABUTH in % [6]: 80%; Pre-emergence action against DIGSA in % [7, 29]: 100%; Pre-emergence action against DIGSA in % ([7]; dosage 320 g/ha): 100%; Post-emergence action against PHBPU in % [8]: 90%; Pre-emergence action against POLCO in % ([9]; dosage 80 g/ha): 90%; Pre-emergence action against POLCO in % ([9]; dosage 320 g/ha): 100%; Pre-emergence action against MATIN in % [10]: 90%; Post-emergence action against ORYSA in % [11, 30]: 0%; Post-emergence action against ORYSA in % [11, 31]: 0%; Post-emergence action against ZEAMX in % (crop plant compatibility) [12]: 0%; Pre-emergence action against ALOMY ([13]; 80 g/ha): 100%; Pre-emergence action against ALOMY ([13]; 320 g/ha): 100%; Post-emergence action against LOLRI in % [14]: 80%; Pre-emergence action against SETVI in % ([15]; dosage 80 g/ha): 100%; Pre-emergence action against SETVI in % ([15]; dosage 320 g/ha): 100%; Pre-emergence action against PHBPU in % [16]: 90%; Pre-emergence action against VIOTR in % ([17]; 320 g/ha, Viola tricolor): 100%; Pre-emergence action against VIOTR in % ([17]; dosage 80 g/ha): 100%; Pre-emergence action against VERPE in % [18]: 100%; Pre-emergence action against ECHCG in % [19]: 100%; Post-emergence action against POLCO in % [20]: 90%; Post-emergence action against SETVI in % [21]: 80%; Post-emergence action against AMARE in % [22]: 80%; Post-emergence action against ALOMY in % [23]: 100%; Post-emergence action against DIGSA in % [24]: 80%; Pre-emergence action against AMARE in % ([25]; 80 g/ha): 100%; Pre-emergence action against AMARE in % ([25]; 320 g/ha): 100%

Q: With `N#CCOC(=O)COc1nn(-c2ncccc2F)c(-c2ccc(F)nc2)c1Br` [Example I-30] as the molecule, how does the “Pre-emergence action against LOLRI in %” value ([1]; dosage 80 g/ha) read?
A: 90%

Q: And the “Pre-emergence action against LOLRI in %” value ([1]; dosage 320 g/ha)?
A: 100%

Q: And the “Pre-emergence action against AVEFA in %” value ([2]; 320 g/ha)?
A: 100%

Q: What about the “Post-emergence action against VIOTR in %” value [4] of the same molecule?
A: 80%

Q: And the “Post-emergence action against ECHCG in %” value [26]?
A: 80%

Q: What about the “Pre-emergence action against ZEAMX in %” value [5] of the same molecule?
A: 10%

Q: And the “Pre-emergence action against DIGSA in %” value [7, 29]?
A: 100%

Q: What about the “Pre-emergence action against DIGSA in %” value ([7]; dosage 320 g/ha) of the same molecule?
A: 100%

Q: And the “Pre-emergence action against POLCO in %” value ([9]; dosage 80 g/ha)?
A: 80%

Q: And the “Pre-emergence action against POLCO in %” value ([9]; dosage 320 g/ha)?
A: 90%

Q: What about the “Pre-emergence action against MATIN in %” value [10] of the same molecule?
A: 90%

Q: And the “Post-emergence action against ZEAMX in % (crop plant compatibility)” value [12]?
A: 20%

Q: What about the “Post-emergence action against ZEAMX in %” value ([12]; crop plant compatibility, 80 g/ha, effect vs untreated controls) of the same molecule?
A: 20%

Q: And the “Pre-emergence action against ALOMY” value ([13]; 80 g/ha)?
A: 100%

Q: What about the “Pre-emergence action against ALOMY” value ([13]; 320 g/ha) of the same molecule?
A: 100%

Q: And the “Pre-emergence action against SETVI in %” value ([15]; dosage 80 g/ha)?
A: 90%

Q: What about the “Pre-emergence action against SETVI in %” value ([15]; dosage 320 g/ha) of the same molecule?
A: 100%

Q: What about the “Pre-emergence action against PHBPU in %” value [16] of the same molecule?
A: 90%

Q: What about the “Pre-emergence action against VIOTR in %” value ([17]; 320 g/ha, Viola tricolor) of the same molecule?
A: 100%

Q: What about the “Pre-emergence action against VIOTR in %” value ([17]; dosage 80 g/ha) of the same molecule?
A: 90%

Q: What about the “Pre-emergence action against VERPE in %” value [18] of the same molecule?
A: 90%

Q: What about the “Pre-emergence action against ECHCG in %” value [19] of the same molecule?
A: 100%

Q: And the “Post-emergence action against ALOMY in %” value [23]?
A: 90%

Q: What about the “Post-emergence action against MATIN in %” value [27] of the same molecule?
A: 90%

Q: What about the “Post-emergence action against DIGSA in %” value [24] of the same molecule?
A: 90%

Q: And the “Pre-emergence action against AMARE in %” value ([25]; 80 g/ha)?
A: 100%

Q: What about the “Pre-emergence action against AMARE in %” value ([25]; 320 g/ha) of the same molecule?
A: 100%

Q: How did the “Pre-emergence action against LOLRI in %” value ([1]; dosage 80 g/ha) turn out when `CCOC(=O)C(C)Oc1nn(-c2ccccn2)c(-c2ccc(F)nc2)c1C(F)(F)F` (centres unmarked) [Example I-107] was run?
A: 80%

Q: And the “Pre-emergence action against LOLRI in %” value ([1]; dosage 320 g/ha)?
A: 100%

Q: And the “Pre-emergence action against AVEFA in %” value ([2]; 320 g/ha)?
A: 80%

Q: What about the “Post-emergence action against AVEFA in %” value [3] of the same molecule?
A: 90%

Q: And the “Pre-emergence action against ORYSA in %” value [28]?
A: 10%

Q: And the “Pre-emergence action against POLCO in %” value ([9]; dosage 320 g/ha)?
A: 80%

Q: What about the “Pre-emergence action against MATIN in %” value [10] of the same molecule?
A: 90%

Q: What about the “Post-emergence action against ORYSA in %” value [11, 30] of the same molecule?
A: 0%

Q: And the “Post-emergence action against ORYSA in %” value [11, 31]?
A: 10%

Q: And the “Post-emergence action against ZEAMX in % (crop plant compatibility)” value [12]?
A: 20%

Q: And the “Pre-emergence action against ALOMY” value ([13]; 80 g/ha)?
A: 90%

Q: What about the “Pre-emergence action against ALOMY” value ([13]; 320 g/ha) of the same molecule?
A: 90%

Q: What about the “Post-emergence action against LOLRI in %” value [14] of the same molecule?
A: 80%

Q: What about the “Pre-emergence action against SETVI in %” value ([15]; dosage 320 g/ha) of the same molecule?
A: 100%

Q: What about the “Pre-emergence action against VIOTR in %” value ([17]; 320 g/ha, Viola tricolor) of the same molecule?
A: 100%

Q: And the “Pre-emergence action against ECHCG in %” value [19]?
A: 100%

Q: What about the “Post-emergence action against SETVI in %” value [21] of the same molecule?
A: 80%

Q: And the “Post-emergence action against AMARE in %” value [22]?
A: 80%

Q: What about the “Post-emergence action against ALOMY in %” value [23] of the same molecule?
A: 90%

Q: And the “Pre-emergence action against AMARE in %” value ([25]; 320 g/ha)?
A: 100%
